The source of these data is patent US12479827B2, “Heteroaromatic carboxamide derivatives as plasma kallikrein inhibitors” (Boehringer Ingelheim International GmbH, priority 2020, dated 2025).

The structures appear in SMILES notation.

What is called IC50 is the concentration that inhibits the measured activity by half.

One assay concerns the target T1, Human PKK (Homo sapiens, UniProt P03952).
T1 construct: purchased Enzyme Research Laboratories
The experiment in a line: Inhibition of PKK using an endpoint assay (human PKK). Type of assay: biochemical. The settings on record: fluorogenic substrate H-Pro-Phe-Arg-AMC, 1 h room temperature, method names human or rat PKK, table does not say which. In short, it runs like this: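 Endpoint fluorescence (ex 355 nm, em 460 nm) after stopping with 1 μM final PPACK II. Buffer: Tris 100 mM pH 7.8, NaCl 150 mM, BSA 0.1%, Tween20 0.05%, with 1% DMSO present; enzyme is human plasma kallikrein.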

The target of assay [1] is T2, PKK in kaolin activated human platelet poor plasma (Homo sapiens, UniProt P03952).
T2 construct: Platelet poor plasma (PPP) obtained from human wholeblood; from tissue
The experiment in a line: Inhibition of PKK in kaolin activated human PPP.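 Further: readout is the rate of fluorogenic substrate cleavage in rfu per min.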 The class given is biochemical. The settings on record: 25-750 μg/mL kaolin, global fit, text b200 calls the values IC90. The method, then: Platelet poor plasma (PPP) obtained from human wholeblood, anticoagulated with Na-Citrate, is incubated with various concentrations of the test compound together with either 25, 75, 250, or 750 μg/mL kaolin in assay buffer for 20 min at 37° C. such that for each kaolin dose used a concentration response is obtained for the test compound.

T2 sequence (P03952 391-638 limits assumed): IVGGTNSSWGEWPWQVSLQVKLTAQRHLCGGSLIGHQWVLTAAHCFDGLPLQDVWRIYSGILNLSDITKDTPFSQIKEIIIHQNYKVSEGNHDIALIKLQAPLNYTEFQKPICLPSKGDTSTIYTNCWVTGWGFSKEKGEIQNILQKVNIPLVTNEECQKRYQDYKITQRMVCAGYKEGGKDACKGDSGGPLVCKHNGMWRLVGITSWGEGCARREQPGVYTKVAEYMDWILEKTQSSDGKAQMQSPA
T2 sequence (P03952 20-390 limits assumed): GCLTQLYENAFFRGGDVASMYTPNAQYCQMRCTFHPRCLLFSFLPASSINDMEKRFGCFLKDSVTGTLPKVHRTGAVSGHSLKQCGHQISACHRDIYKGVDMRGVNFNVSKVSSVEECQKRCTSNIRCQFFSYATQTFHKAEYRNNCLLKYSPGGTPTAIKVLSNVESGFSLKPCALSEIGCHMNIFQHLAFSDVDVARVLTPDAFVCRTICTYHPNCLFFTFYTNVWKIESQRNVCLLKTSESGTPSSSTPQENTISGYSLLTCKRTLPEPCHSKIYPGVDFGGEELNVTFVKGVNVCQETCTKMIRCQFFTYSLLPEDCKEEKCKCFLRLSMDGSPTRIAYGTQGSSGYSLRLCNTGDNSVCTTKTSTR
T1 sequence (P03952 20-390 limits assumed): as above
T1 sequence (P03952 391-638 limits assumed): as the sequence (P03952 391-638 limits assumed) above

In the case of `Cc1nc(N2CC3CC3C2)ccc1Cn1cc(C(=O)N[C@@H]2CCc3c2ncn3C)c(C#N)n1` (stereo partly drawn) [Example 70, 1-[(6-{3-Azabicyclo[3.1.0]hexan-3-yl}-2-methylpyridin-3-yl)methyl]-3-cyano-N-[(4R)-1-methyl-1H,4H,5H,6H-cyclopenta[d]imidazol-4-yl]-1H-pyrazole-4-carboxamide], the IC50 against Human PKK came out at 0.8 nM; in assay [1], 797 nM.
For `Cc1c(Cn2cc(C(=O)N[C@@H]3CCc4c3ncn4C)cn2)cnc(N2CC3C(C2)C3(F)F)c1C#N` (stereo partly drawn) [Example 103, 1-[(5-Cyano-6-{6,6-difluoro-3-azabicyclo[3.1.0]-hexan-3-yl}-4-methylpyridin-3-yl)methyl]-N-[(4R)-1-methyl-1H,4H,5H,6H-cyclopenta-[d]imidazol-4-yl]-1H-pyrazole-4-carboxamide], in that order: 0.7 nM and 531 nM.
The like results for `COCc1nc(N2CC3(CC3)C2)ccc1Cn1cc(C(=O)N[C@@H]2CCc3c2ncn3C)cn1` [Example 78, 1-[(6-{5-Azaspiro[2.3]hexan-5-yl}-2-(methoxymethyl)-pyridin-3-yl)methyl]-N-[(4R)-1-methyl-1H,4H,5H,6H-cyclopenta[d]imidazol-4-yl]-1H-pyrazole-4-carboxamide] were, in that order, 6.8 nM and 317 nM.
In the case of `Cn1cnc2c1CC[C@H]2NC(=O)c1cc(Cc2ccc(N3CC4C(C3)C4(F)F)nc2CO)no1` (stereo partly drawn) [Example 147, 3-[(6-{6,6-Difluoro-3-azabicyclo[3.1.0]hexan-3-yl}-2-(hydroxymethyl)pyridin-3-yl)methyl]-N-[(4R)-1-methyl-1H,4H,5H,6H-cyclopenta-[d]imidazol-4-yl]-1,2-oxazole-5-carboxamide], the IC50 came out at 1.4 nM against Human PKK and 149 nM in assay [1].
The like results for `CCn1nc(Cc2ccc(N3CC4C(C3)C4(F)F)nc2C)cc1C(=O)N[C@@H]1CCc2c1ncn2C` (stereo partly drawn) [Example 163, 3-[(6-{6,6-Difluoro-3-azabicyclo[3.1.0]hexan-3-yl}-2-methylpyridin-3-yl)methyl]-1-ethyl-N-[(4R)-1-methyl-1H,4H,5H,6H-cyclopenta[d]imidazol-4-yl]-1H-pyrazole-5-carboxamide] were, in that order, 2.2 nM and 470 nM.
For `Cn1cnc2c1CC[C@H]2NC(=O)c1cnn(Cc2ccc(N3CC4CC4C3)cn2)c1` (stereo partly drawn) [Example 9, 1-[(5-{3-Azabicyclo[3.1.0]hexan-3-yl}pyridin-2-yl)methyl]-N-[(4R)-1-methyl-1H,4H,5H,6H-cyclopenta[d]imidazol-4-yl]-1H-pyrazole-4-carboxamide], in that order: 3.8 nM and 603 nM.
`Cn1cnc2c1CC[C@H]2NC(=O)c1cnn(Cc2cnc(N3CC4CC4C3)nc2CO)c1` (stereo partly drawn) [Example 62, 1-[(2-{3-Azabicyclo[3.1.0]hexan-3-yl}-4-(hydroxymethyl)-pyrimidin-5-yl)methyl]-N-[(4R)-1-methyl-1H,4H,5H,6H-cyclopenta[d]imidazol-4-yl]-1H-pyrazole-4-carboxamide]: the figures for the IC50 (on Human PKK; in assay [1]) were 14 nM and 769 nM, respectively.
Take `Cc1nc(N2CC3(CC3)C2)ccc1Cn1cc(C(=O)N[C@@H]2CCc3c2ncn3C)nn1` [Example 68, 1-[(6-{5-Azaspiro[2.3]hexan-5-yl}-2-methylpyridin-3-yl)-methyl]-N-[(4R)-1-methyl-1H,4H,5H,6H-cyclo-penta[d]imidazol-4-yl]-1H-1,2,3-triazole-4-carboxamide]: the IC50 on Human PKK amounted to 1.4 nM; in assay [1], 637 nM.
For `Cn1cnc2c1CC[C@H]2NC(=O)c1cnn(Cc2ccc(N3CC4CC4C3)nc2CCO)c1` (stereo partly drawn) [Example 85, 1-[(6-{3-Azabicyclo[3.1.0]hexan-3-yl}-2-(2-hydroxyethyl)-pyridin-3-yl)methyl]-N-[(4R)-1-methyl-1H,4H,5H,6H-cyclopenta[d]imidazol-4-yl]-1H-pyrazole-4-carboxamide], in that order: 0.8 nM and 132 nM.
For `Cn1cnc2c1CC[C@H]2NC(=O)c1cnn(Cc2ncc(N3CC4CC4C3)nc2CO)c1` (stereo partly drawn) [Example 89, 1-[(5-{3-Azabicyclo[3.1.0]hexan-3-yl}-3-(hydroxymethyl)-pyrazin-2-yl)methyl]-N-[(4R)-1-methyl-1H,4H,5H,6H-cyclopenta[d]imidazol-4-yl]-1H-pyrazole-4-carboxamide], in that order: 77.5 nM and 3430 nM.
As to `Cn1cnc2c1CC[C@H]2NC(=O)c1cn(Cc2ccc(N3CC4C(C3)C4(F)F)nc2)cn1` (stereo partly drawn) [Example 63, 1-[(6-{6,6-Difluoro-3-azabicyclo[3.1.0]hexan-3-yl}pyridin-3-yl)methyl]-N-[(4R)-1-methyl-1H,4H,5H,6H-cyclopenta[d]imidazol-4-yl]-1H-imidazole-4-carboxamide], the results for the IC50 (on Human PKK; in assay [1]) were 3 nM and 203 nM, respectively.
The like results for `Cn1cnc2c1CC[C@H]2NC(=O)c1cn(Cc2cnc(N3CC4CC4C3)nc2CO)cn1` (stereo partly drawn) [Example 214, 1-[(2-{3-Azabicyclo[3.1.0]hexan-3-yl}-4-(hydroxymethyl)pyrimidin-5-yl)methyl]-N-[(4R)-1-methyl-1H,4H,5H,6H-cyclopenta[d]imidazol-4-yl]-1H-imidazole-4-carboxamide] were, in that order, 20.3 nM and 1040 nM.
For the compound `CCc1nc(N2CC3C(C2)C3(F)F)ccc1Cc1ccc(C(=O)N[C@@H]2CCc3c2ncn3C)s1` (stereo partly drawn) [Example 184, 5-[(6-{6,6-Difluoro-3-azabicyclo[3.1.0]hexan-3-yl}-2-ethylpyridin-3-yl)methyl]-N-[(4R)-1-methyl-1H,4H,5H,6H-cyclopenta[d]imidazol-4-yl]thiophene-2-carboxamide], the IC50 at Human PKK was determined as 13.5 nM; in assay [1] it was 2310 nM.
For `Cn1cnc2c1CC[C@H]2NC(=O)c1cnn(Cc2ccc(N3CC4C(C3)C4(F)F)cc2F)c1` (stereo partly drawn) [Example 213, 1-[(4-{6,6-difluoro-3-azabicyclo[3.1.0]hexan-3-yl}-2-fluorophenyl)methyl]-N-[(4R)-1-methyl-1H,4H,5H,6H-cyclopenta[d]imidazol-4-yl]-1H-pyrazole-4-carboxamide], in that order: 2.3 nM and 621 nM.
The like results for `Cc1nc(N2CC3C(C2)C3(F)F)ccc1Cn1ccc(C(=O)N[C@@H]2CCc3c2ncn3C)c1` (stereo partly drawn) [Example 141, 1-[(6-{6,6-Difluoro-3-azabicyclo[3.1.0]hexan-3-yl}-2-methylpyridin-3-yl)methyl]-N-[(4R)-1-methyl-1H,4H,5H,6H-cyclopenta[d]imidazol-4-yl]-1H-pyrrole-3-carboxamide] were, in that order, 2 nM and 621 nM.
The like results for `Cn1cnc2c1CC[C@H]2NC(=O)c1cn(Cc2ccc(N3CC4CC4C3)nc2Cl)nn1` (stereo partly drawn) [Example 32, 1-[(6-{3-Azabicyclo[3.1.0]hexan-3-yl}-2-chloropyridin-3-yl)methyl]-N-[(4R)-1-methyl-1H,4H,5H,6H-cyclopenta-[d]imidazol-4-yl]-1H-1,2,3-triazole-4-carboxamide] were, in that order, 1.1 nM and 548 nM.
`Cn1cnc2c1CC[C@H]2NC(=O)c1cn(Cc2ccc(N3CC4CC4C3)nc2C(F)F)nn1` (stereo partly drawn) [Example 30, 1-[(6-{3-Azabicyclo[3.1.0]hexan-3-yl}-2-(difluoromethyl)-pyridin-3-yl)methyl]-N-[(4R)-1-methyl-1H,4H,5H,6H-cyclo-penta[d]imidazol-4-yl]-1H-1,2,3-triazole-4-carboxamide]: the IC50 against Human PKK was determined as 0.9 nM; in assay [1] it was 334 nM.
